Where two headings read alike, the source gives them in different places. Non-standard residues stand in square brackets, D forms with d. Residues, ends and D or L forms follow the SMILES beside them. Groups on a side chain read outwards from the residue. ξ: configuration not given here. *: point of attachment. Malonyl(2,2-Me2,histaminyl) = CC(C)(C(=O)NCCc1cnc[nH]1)C(=O)*; Ala(1H-tetrazol-5-yl) = N[C@@H](Cc1nnn[nH]1)C(=O)O; ξαMePhe(2-F) = CC(N)(Cc1ccccc1F)C(=O)O; Lauroyl = CCCCCCCCCCCC(=O)*; Nle = CCCC[C@H](N)C(=O)O; Aib = CC(C)(N)C(=O)O; Alloc = C=CCOC(=O)*; βAla = NCCC(=O)O
What was measured:
human GLP1 receptor = molecular target: T1, human GLP1 receptor (Homo sapiens, UniProt P43220); test: cAMP accumulation assay (HTRF), functional agonism of human GLP1 receptor in HEK cells; type: cell-based; settings: for EC50: read-out: Human GLP-1R agonist cAMP pEC50 (converted)
T1 construct: expressed in transfected cells; host or cells: HEK cells, BacMam virus transduction
Method: The functional activity of the peptides were assessed using a HTRF cAMP assay. pEC50 values are quoted.
cAMP production upon agonist stimulation of human GLP2 or GLP1 receptor was assessed utilizing HiRange cAMP kit (Cisbio). In brief, HEK cells were infected with either human GLP2 or GLP1 receptor BacMam virus for 24 hours and frozen for later use in the assay. […] Cells were prepared in the assay buffer (HBSS (Lonza) supplemented with 0.5 mM IBMX (Tocris)). After 45 min incubation at 37° C., the reaction was stopped by addition of the HTRF detection reagents in the lysis buffer provided in the kit.

human GLP2 receptor = molecular target: T2, human GLP2 receptor (Homo sapiens, UniProt O95838); test: cAMP accumulation assay (HTRF), functional agonism of human GLP2 receptor in HEK cells; settings: for Emax: HEK293, read-out: Human GLP-2R agonist cAMP Emax;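 for all read-outs here: HEK cells transduced via BacMam to express human GLP2 receptor, agonist-stimulated cAMP measured by HTRF after 45 min at 37 °C in HBSS with 0.5 mM IBMX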
T2 sequence (O95838 1-553): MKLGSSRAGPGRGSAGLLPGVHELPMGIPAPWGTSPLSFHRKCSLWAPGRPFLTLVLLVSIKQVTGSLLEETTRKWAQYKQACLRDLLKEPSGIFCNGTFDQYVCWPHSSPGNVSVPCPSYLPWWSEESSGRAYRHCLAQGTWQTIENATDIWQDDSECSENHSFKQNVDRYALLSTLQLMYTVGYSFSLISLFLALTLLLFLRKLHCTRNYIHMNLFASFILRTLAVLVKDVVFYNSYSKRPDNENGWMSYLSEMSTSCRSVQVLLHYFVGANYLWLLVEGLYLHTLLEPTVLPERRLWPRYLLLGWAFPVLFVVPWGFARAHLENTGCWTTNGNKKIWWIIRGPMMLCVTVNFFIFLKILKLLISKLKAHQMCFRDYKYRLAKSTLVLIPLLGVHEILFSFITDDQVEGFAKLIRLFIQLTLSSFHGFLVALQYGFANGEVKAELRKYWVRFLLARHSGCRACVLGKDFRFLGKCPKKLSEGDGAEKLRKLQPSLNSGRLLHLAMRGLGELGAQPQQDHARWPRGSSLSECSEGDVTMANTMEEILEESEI

[1] = HEK293, HEK cells, human GLP1 receptor BacMam, 45 min 37° C., read-out: Human GLP-1R agonist cAMP Emax
[2] = HEK cells, human GLP1 receptor BacMam, 45 min 37° C.

T1 sequence (P43220 24-463): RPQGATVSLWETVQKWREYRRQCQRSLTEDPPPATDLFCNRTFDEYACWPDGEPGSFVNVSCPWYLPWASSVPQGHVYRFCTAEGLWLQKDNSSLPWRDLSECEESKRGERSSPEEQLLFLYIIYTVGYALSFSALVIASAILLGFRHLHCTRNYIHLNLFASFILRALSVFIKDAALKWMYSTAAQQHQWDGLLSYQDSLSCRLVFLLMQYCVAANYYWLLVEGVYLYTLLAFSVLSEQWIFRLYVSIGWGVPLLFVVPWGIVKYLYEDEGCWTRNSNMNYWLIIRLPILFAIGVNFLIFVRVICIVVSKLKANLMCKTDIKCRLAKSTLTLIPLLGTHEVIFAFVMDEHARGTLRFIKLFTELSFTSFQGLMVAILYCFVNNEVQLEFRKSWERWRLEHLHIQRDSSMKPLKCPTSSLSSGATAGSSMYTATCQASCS

Emax (human GLP1 receptor; [1])	EC50 (human GLP1 receptor; [2])	EC50 (human GLP2 receptor)	Emax (human GLP2 receptor)	Structure (SMILES)	Emax (human GLP1 receptor; HEK293, read-out: Human GLP-1R agonist cAMP Emax)
62.2%	39.8 nM	0.01 nM	102%	C=CCOC(=O)NCCCC[C@H](NC(=O)[C@H](CC(C)C)NC(=O)[C@H](CC(=O)O)NC(=O)[C@H](CC(C)C)NC(=O)C(C)(C)NC(=O)[C@@H](NC(=O)[C@@H](Cc1ccccc1)NC(=O)[C@H](CCCC)NC(=O)[C@H](CCC(=O)O)NC(=O)[C@H](CC(=O)O)NC(=O)[C@H](CO)NC(=O)[C@H](Cc1ccccc1)NC(=O)[C@H](CO)NC(=O)[C@@H](C)NC(=O)[C@H](Cc1nn[nH]n1)NC(=O)C(C)(C)C(=O)NCCc1c[nH]cn1)[C@@H](C)O)C(=O)N[C@@H](C)C(=O)N[C@@H](C)C(=O)NC(C)(C)C(=O)N[C@@H](CC(=O)O)C(=O)N[C@@H](Cc1ccccc1)C(=O)N[C@H](C(=O)N[C@@H](CC(N)=O)C(=O)N[C@@H](Cc1c[nH]c2ccccc12)C(=O)N[C@@H](CC(C)C)C(=O)N[C@H](C(=O)N[C@@H](CCC(N)=O)C(=O)N[C@H](C(=O)N[C@@H](CCCCN)C(=O)N[C@H](C(=O)N[C@H](C(=O)N[C@@H](Cc1ccccc1)C(N)=O)[C@@H](C)O)[C@@H](C)CC)[C@@H](C)O)[C@@H](C)CC)[C@@H](C)CC [Example 7] ({Malonyl(2,2-Me2,histaminyl)}-[Ala(1H-tetrazol-5-yl)][dA]SFSDE[Nle][dF]T[Aib]LDLK(Alloc)AA[Aib]DFINWLIQTKITF-NH2)	
98.1%			99.3%	C=CCOC(=O)NCCCC[C@H](NC(=O)[C@H](CC(C)C)NC(=O)[C@H](CC(=O)O)NC(=O)[C@H](CC(C)C)NC(=O)[C@@H](NC(=O)[C@@H](NC(=O)[C@@H](Cc1ccccc1)NC(=O)[C@H](CCCC)NC(=O)[C@H](CCC(=O)O)NC(=O)[C@H](CC(=O)O)NC(=O)[C@H](CO)NC(=O)C(C)(Cc1ccccc1F)NC(=O)[C@H](CO)NC(=O)CNC(=O)[C@H](CC(=O)O)NC(=O)C(C)(C)C(=O)NCCc1c[nH]cn1)[C@@H](C)O)[C@@H](C)CC)C(=O)N[C@@H](C)C(=O)N[C@@H](C)C(=O)N[C@@H](CCCCN)C(=O)N[C@@H](CC(=O)O)C(=O)N[C@@H](Cc1ccccc1)C(=O)N[C@H](C(=O)N[C@@H](CC(N)=O)C(=O)N[C@@H](Cc1c[nH]c2ccccc12)C(=O)N[C@@H](CC(C)C)C(=O)N[C@H](C(=O)N[C@@H](CCC(N)=O)C(=O)N[C@H](C(=O)N[C@@H](CCCCN)C(=O)N[C@H](C(=O)N[C@H](C(=O)N[C@@H](CC(=O)O)C(N)=O)[C@@H](C)O)[C@@H](C)CC)[C@@H](C)O)[C@@H](C)CC)[C@@H](C)CC (stereo partly drawn) [Example 4] ({Malonyl(2,2-Me2,histaminyl)}-DGS[ξαMePhe(2-F)]SDE[Nle][dF]TILDLK(Alloc)AAKDFINWLIQTKITD-NH2; C-terminus assumed)	
96.4%	10 nM	0.0316 nM	103%	C=CCOC(=O)NCCCC[C@H](NC(=O)[C@H](C)NC(=O)[C@H](C)NC(=O)[C@H](CCCCNC(=O)OCC=C)NC(=O)[C@H](CC(C)C)NC(=O)[C@H](CC(=O)O)NC(=O)[C@H](CC(C)C)NC(=O)C(C)(C)NC(=O)[C@@H](NC(=O)[C@@H](Cc1ccccc1)NC(=O)[C@H](CCCC)NC(=O)[C@H](CCC(=O)O)NC(=O)[C@H](CC(=O)O)NC(=O)[C@H](CO)NC(=O)[C@H](Cc1ccccc1)NC(=O)[C@H](CO)NC(=O)CNC(=O)[C@H](Cc1nn[nH]n1)NC(=O)C(C)(C)C(=O)NCCc1c[nH]cn1)[C@@H](C)O)C(=O)N[C@@H](CC(=O)O)C(=O)N[C@@H](Cc1ccccc1)C(=O)N[C@H](C(=O)N[C@@H](CC(N)=O)C(=O)N[C@@H](Cc1c[nH]c2ccccc12)C(=O)N[C@@H](CC(C)C)C(=O)N[C@H](C(=O)N[C@@H](CCC(N)=O)C(=O)N[C@H](C(=O)N[C@@H](CCCCN)C(=O)N[C@H](C(=O)N[C@H](C(=O)N[C@@H](Cc1ccccc1)C(N)=O)[C@@H](C)O)[C@@H](C)CC)[C@@H](C)O)[C@@H](C)CC)[C@@H](C)CC [Example 6] ({Malonyl(2,2-Me2,histaminyl)}-[Ala(1H-tetrazol-5-yl)]GSFSDE[Nle][dF]T[Aib]LDLK(Alloc)AAK(Alloc)DFINWLIQTKITF-NH2)	

Structure (SMILES)	Emax (human GLP1 receptor; [1])	EC50 (human GLP1 receptor; [2])	EC50 (human GLP2 receptor)	Emax (human GLP2 receptor)	Emax (human GLP1 receptor; HEK293, read-out: Human GLP-1R agonist cAMP Emax)
CCCCCCCCCCCC(=O)NCCC(=O)NCCCC[C@H](NC(=O)[C@H](CC(N)=O)NC(=O)[C@H](CC(=O)O)NC(=O)[C@H](CC(C)C)NC(=O)[C@@H](NC(=O)[C@@H](NC(=O)[C@@H](Cc1ccccc1)NC(=O)[C@H](CCCC)NC(=O)[C@H](CCC(=O)O)NC(=O)[C@H](CC(=O)O)NC(=O)[C@H](CO)NC(=O)[C@H](Cc1ccccc1)NC(=O)[C@H](CO)NC(=O)[C@@H](C)NC(=O)[C@H](Cc1nn[nH]n1)NC(=O)C(C)(C)C(=O)NCCc1c[nH]cn1)[C@@H](C)O)[C@@H](C)CC)C(=O)NC(C)(C)C(=O)N[C@@H](C)C(=O)N[C@@H](CCCCN)C(=O)N[C@@H](CC(=O)O)C(=O)N[C@@H](Cc1ccccc1)C(=O)N[C@H](C(=O)N[C@@H](CC(N)=O)C(=O)N[C@@H](Cc1c[nH]c2ccccc12)C(=O)N[C@@H](CC(C)C)C(=O)N[C@H](C(=O)N[C@@H](CCC(N)=O)C(=O)N[C@H](C(=O)N[C@@H](CCCCN)C(=O)N[C@H](C(=O)N[C@H](C(=O)N[C@@H](Cc1ccccc1)C(N)=O)[C@@H](C)O)[C@@H](C)CC)[C@@H](C)O)[C@@H](C)CC)[C@@H](C)CC [Example 21] ({Malonyl(2,2-Me2,histaminyl)}-[Ala(1H-tetrazol-5-yl)][dA]SFSDE[Nle][dF]TILDNK([βAla-Lauroyl])[Aib]AKDFINWLIQTKITF-NH2; C-terminus assumed)				99.7%	91.5%
